Source: ChEMBL document CHEMBL1201862, “PubChem BioAssay data set” (2004)
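Five compound concentrations were applied to cells in 96-well plates for 48 hours; endpoints were derived by simple linear interpolation of the resulting dose-response curve. At the GI50, growth is halved.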 Activity calls are given as the source filed them. Cut-off read from the data, not from the text of the source: active = GI50 up to about 1.1 µM and inactive = higher.

What was measured:
Assay in all cases: DTP human tumour cell line panel, 48 h
SK-OV-3 = system: SK-OV-3
K562 = system: K562
SK-MEL-2 = system: SK-MEL-2
SK-MEL-28 = system: SK-MEL-28
SR = system: SR
DU-145 = system: DU-145
A498 = system: A498
PC-3 = system: PC-3
MOLT-4 = system: MOLT-4
RPMI-8226 = system: RPMI-8226
UACC-62 = system: UACC-62
RXF 393 = system: RXF 393
M14 = system: M14
SNB-19 = system: SNB-19
COLO 205 = system: COLO 205
U-251 = system: U-251
786-0 = system: 786-0
NCI-H226 = system: NCI-H226
SK-MEL-5 = system: SK-MEL-5
SNB-75 = system: SNB-75

Measured: GI50

C[C@H]1C=C2[C@@H]3CC(C)(C(=O)O)CC[C@]3(C)CC[C@]2(C)[C@]2(C)CC[C@H]3C(C)(C)[C@@H](OC(=O)c4cccc5c(=O)c6ccccc6[nH]c45)CC[C@]3(C)[C@@H]12 (stereo partly specified)
inactive: SK-OV-3 > 100 µM | K562 54.5 µM | SK-MEL-2 > 100 µM | SK-MEL-28 53.3 µM | SR 66.8 µM | DU-145 67.5 µM | A498 79.1 µM | PC-3 38.2 µM | MOLT-4 > 100 µM | RPMI-8226 43 µM | UACC-62 43.3 µM | RXF 393 > 100 µM | M14 61 µM | SNB-19 > 100 µM | COLO 205 58.1 µM | U-251 81.5 µM | 786-0 > 100 µM | NCI-H226 24 µM | SK-MEL-5 34.4 µM | SNB-75 > 100 µM

c1ccc2sc(SCCSc3nc4ccccc4s3)nc2c1
inactive: SK-OV-3 > 100 µM | K562 > 100 µM | SK-MEL-2 > 100 µM | SK-MEL-28 > 100 µM | SR > 100 µM | DU-145 > 100 µM | A498 > 100 µM | PC-3 > 100 µM | RPMI-8226 > 100 µM | UACC-62 > 100 µM | RXF 393 > 100 µM | M14 > 100 µM | SNB-19 > 100 µM | U-251 > 100 µM | 786-0 > 100 µM | SNB-75 74.3 µM

CC(=O)O[C@@H]1C(=O)N(c2ccccc2)[C@@H]1c1cc2ccccc2c2ccccc12
inactive: SK-OV-3 47.8 µM | K562 36.6 µM | SK-MEL-2 14.4 µM | SK-MEL-28 56 µM | SR 15.5 µM | DU-145 40.8 µM | A498 > 100 µM | PC-3 32.9 µM | MOLT-4 12.3 µM | RPMI-8226 21.3 µM | UACC-62 22.8 µM | RXF 393 15 µM | M14 55.3 µM | SNB-19 73.3 µM | COLO 205 16.7 µM | U-251 43.1 µM | 786-0 42.2 µM | NCI-H226 7.1 µM | SK-MEL-5 23.2 µM

O=[N+]([O-])C(/C=C(\Cl)n1nnc2ccccc21)=C(/Cl)n1nnc2ccccc21
inactive: SK-OV-3 > 100 µM | K562 > 100 µM | SK-MEL-2 > 100 µM | SK-MEL-28 > 100 µM | SR > 100 µM | DU-145 > 100 µM | A498 > 100 µM | PC-3 > 100 µM | MOLT-4 > 100 µM | RPMI-8226 > 100 µM | UACC-62 > 100 µM | RXF 393 > 100 µM | M14 > 100 µM | SNB-19 > 100 µM | COLO 205 > 100 µM | U-251 > 100 µM | 786-0 > 100 µM | NCI-H226 > 100 µM | SK-MEL-5 > 100 µM

Cc1c2c(n3c(nc4ccccc43)c1C#N)NCC2
inactive: SK-OV-3 > 10 µM | K562 > 10 µM | SK-MEL-28 > 10 µM | SR > 10 µM | DU-145 > 10 µM | A498 > 10 µM | PC-3 > 10 µM | MOLT-4 > 10 µM | RPMI-8226 > 10 µM | UACC-62 > 10 µM | RXF 393 > 10 µM | M14 > 10 µM | SNB-19 > 10 µM | COLO 205 > 10 µM | U-251 > 10 µM | 786-0 > 10 µM | NCI-H226 > 10 µM | SK-MEL-5 > 10 µM | SNB-75 > 10 µM

O=C1CC(c2ccco2)C2(C(=O)NC(=O)NC2=O)C(c2ccco2)C1 (stereo unspecified)
inactive: SK-OV-3 > 75 µM | K562 > 75 µM | SK-MEL-2 > 75 µM | SK-MEL-28 > 75 µM | SR > 75 µM | DU-145 > 75 µM | A498 > 75 µM | PC-3 > 75 µM | MOLT-4 > 75 µM | RPMI-8226 > 75 µM | UACC-62 > 75 µM | RXF 393 > 75 µM | M14 > 75 µM | SNB-19 > 75 µM | COLO 205 > 75 µM | U-251 > 75 µM | 786-0 > 75 µM | SK-MEL-5 > 75 µM | SNB-75 > 75 µM

COC(=N)C12C(N)=NC(OC)(OC)C1(C#N)C21C(=O)N(c2ccccc2)N=C1C (stereo unspecified)
inactive: SK-OV-3 > 100 µM | K562 > 100 µM | SK-MEL-2 > 100 µM | SK-MEL-28 > 100 µM | SR 37.6 µM | DU-145 > 100 µM | A498 > 100 µM | PC-3 > 100 µM | MOLT-4 > 100 µM | RPMI-8226 > 100 µM | UACC-62 > 100 µM | RXF 393 > 100 µM | M14 > 100 µM | SNB-19 > 100 µM | COLO 205 > 100 µM | U-251 > 100 µM | 786-0 > 100 µM | NCI-H226 > 100 µM | SNB-75 > 100 µM
